Laboratory results as given in publication PMC4363177 (Bioorganic & medicinal chemistry, 2015).

How the values were obtained:
5-HT2A receptor = settings: cited from earlier work
[1] = target: human serotonin 5-HT2A receptor (Homo sapiens, UniProt P28223); test: Radioligand competitive displacement binding, 5-HT2A
[2] = target: human serotonin 5-HT2B receptor (Homo sapiens, UniProt P41595); test: Radioligand competitive displacement binding, 5-HT2B
locomotor activity = settings: administered alone; cited from earlier work

Chain of human serotonin 5-HT2B receptor (P41595 whole entry): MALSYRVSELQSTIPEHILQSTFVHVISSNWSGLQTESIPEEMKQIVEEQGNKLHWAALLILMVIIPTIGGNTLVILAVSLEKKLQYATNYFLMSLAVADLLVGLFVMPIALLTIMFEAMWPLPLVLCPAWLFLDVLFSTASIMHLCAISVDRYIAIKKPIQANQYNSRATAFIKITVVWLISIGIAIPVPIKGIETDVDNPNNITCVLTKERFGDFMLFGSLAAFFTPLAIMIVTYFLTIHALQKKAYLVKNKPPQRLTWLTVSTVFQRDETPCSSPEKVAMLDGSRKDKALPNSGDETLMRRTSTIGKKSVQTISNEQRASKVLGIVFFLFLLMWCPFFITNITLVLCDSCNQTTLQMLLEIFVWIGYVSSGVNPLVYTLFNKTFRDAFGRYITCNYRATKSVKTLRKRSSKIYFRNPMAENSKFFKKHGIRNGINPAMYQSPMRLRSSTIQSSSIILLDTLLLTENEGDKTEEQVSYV
Chain of human serotonin 5-HT2A receptor (P28223 whole entry): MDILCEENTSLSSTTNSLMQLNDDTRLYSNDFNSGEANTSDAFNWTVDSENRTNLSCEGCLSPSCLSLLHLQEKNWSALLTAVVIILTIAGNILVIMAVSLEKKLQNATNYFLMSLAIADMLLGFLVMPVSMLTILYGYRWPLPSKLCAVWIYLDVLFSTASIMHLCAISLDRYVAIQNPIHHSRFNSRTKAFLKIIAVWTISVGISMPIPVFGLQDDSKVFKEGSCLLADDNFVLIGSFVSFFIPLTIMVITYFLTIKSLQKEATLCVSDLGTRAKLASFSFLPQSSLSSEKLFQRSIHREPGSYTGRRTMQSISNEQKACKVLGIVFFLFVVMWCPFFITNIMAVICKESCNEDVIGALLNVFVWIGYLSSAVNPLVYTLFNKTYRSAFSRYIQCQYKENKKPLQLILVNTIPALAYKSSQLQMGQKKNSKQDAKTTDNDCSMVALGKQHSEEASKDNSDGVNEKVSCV

CN(C)[C@@H]1Cc2ccccc2[C@@H](c2ccccc2)C1 (relative stereo) [(−)-trans-PAT, (2S, 4R)-(−)-trans-4-phenyl-N,N-dimethyl-1,2,3,4-tetrahydronaphthalen-2-amine]
functional activity at 5-HT2A receptors (5-HT2A receptor): inverse agonist (and competitive antagonist) activity

CN(C)[C@@H]1Cc2ccccc2[C@@H](c2ccccc2)C1 [(+)-trans-PAT, trans-4-phenyl-N,N-dimethyl-1,2,3,4-tetrahydronaphthalen-2-amine]
Ki [1]: 470 nM
Ki [2]: 240 nM

CN1CCN(C2=Nc3cc(Cl)ccc3Nc3ccccc32)CC1 [clozapine]
effect on locomotor activity (locomotor activity): suppressed locomotor activity
